Source: ChEMBL document CHEMBL1201862, “PubChem BioAssay data set” (2004)
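The compound was tested at five concentrations on cells cultured in 96-well plates, with a 48-hour exposure period. Here, GI50 denotes the concentration required for 50% inhibition of growth.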 Calls of active or inactive are those of the source. No stated cut-off is given here; in the data, active = GI50 up to about 1.1 µM and inactive = higher.

Columns and labels:
Assay in all cases: NCI tumour cell line growth inhibition, 48 h
786-0 = test system: 786-0
A498 = test system: A498
A549 = test system: A549
ACHN = test system: ACHN
BT-549 = test system: BT-549
CAKI-1 = test system: CAKI-1
CCRF-CEM = test system: CCRF-CEM
COLO 205 = test system: COLO 205
DU-145 = test system: DU-145
EKVX = test system: EKVX
HCT-116 = test system: HCT-116
HCT-15 = test system: HCT-15
HL-60 = test system: HL-60
HOP-62 = test system: HOP-62
HOP-92 = test system: HOP-92
HT-29 = test system: HT-29
Hs-578T = test system: Hs-578T
IGROV-1 = test system: IGROV-1
KM12 = test system: KM12
LOX IMVI = test system: LOX IMVI
M14 = test system: M14
MCF7 = test system: MCF7
MDA-MB-231 = test system: MDA-MB-231
MDA-MB-435 = test system: MDA-MB-435
MDA-N = test system: MDA-N
MOLT-4 = test system: MOLT-4
Malme-3M = test system: Malme-3M
NCI-H226 = test system: NCI-H226
NCI-H23 = test system: NCI-H23
NCI-H522 = test system: NCI-H522
NCI/ADR-RES = test system: NCI/ADR-RES
OVCAR-3 = test system: OVCAR-3
OVCAR-4 = test system: OVCAR-4
OVCAR-5 = test system: OVCAR-5
OVCAR-8 = test system: OVCAR-8
PC-3 = test system: PC-3
RPMI-8226 = test system: RPMI-8226
SF-268 = test system: SF-268
SF-295 = test system: SF-295
SF-539 = test system: SF-539
SK-MEL-28 = test system: SK-MEL-28
SK-MEL-2 = test system: SK-MEL-2
SK-MEL-5 = test system: SK-MEL-5
SK-OV-3 = test system: SK-OV-3
SN12C = test system: SN12C
SNB-19 = test system: SNB-19
SR = test system: SR
SW-620 = test system: SW-620
T47D = test system: T47D
TK-10 = test system: TK-10
U-251 = test system: U-251
UACC-257 = test system: UACC-257
UACC-62 = test system: UACC-62
UO-31 = test system: UO-31
HCC 2998 = test system: HCC 2998
K562 = test system: K562
NCI-H460 = test system: NCI-H460
RXF 393 = test system: RXF 393
SNB-75 = test system: SNB-75

Structure (SMILES): O=C(O)[C@@]1(Cc2ccc(O)cc2)C[C@@H]2Cc3ccccc3N2N1
- GI50 (786-0): > 100 µM (inactive)
- GI50 (A498): > 100 µM (inactive)
- GI50 (A549): > 100 µM (inactive)
- GI50 (ACHN): > 100 µM (inactive)
- GI50 (BT-549): > 100 µM (inactive)
- GI50 (CAKI-1): > 100 µM (inactive)
- GI50 (CCRF-CEM): > 100 µM (inactive)
- GI50 (COLO 205): > 100 µM (inactive)
- GI50 (DU-145): > 100 µM (inactive)
- GI50 (EKVX): > 100 µM (inactive)
- GI50 (HCT-116): > 100 µM (inactive)
- GI50 (HCT-15): > 100 µM
- GI50 (HL-60): > 100 µM (inactive)
- GI50 (HOP-62): > 100 µM (inactive)
- GI50 (HOP-92): > 100 µM (inactive)
- GI50 (HT-29): > 100 µM (inactive)
- GI50 (Hs-578T): > 100 µM (inactive)
- GI50 (IGROV-1): > 100 µM (inactive)
- GI50 (KM12): > 100 µM (inactive)
- GI50 (LOX IMVI): > 100 µM (inactive)
- GI50 (M14): > 100 µM (inactive)
- GI50 (MCF7): > 100 µM (inactive)
- GI50 (MDA-MB-231): > 100 µM (inactive)
- GI50 (MDA-MB-435): > 100 µM (inactive)
- GI50 (MDA-N): > 100 µM (inactive)
- GI50 (MOLT-4): > 100 µM (inactive)
- GI50 (Malme-3M): > 100 µM (inactive)
- GI50 (NCI-H226): > 100 µM (inactive)
- GI50 (NCI-H23): > 100 µM (inactive)
- GI50 (NCI-H522): > 100 µM (inactive)
- GI50 (NCI/ADR-RES): > 100 µM (inactive)
- GI50 (OVCAR-3): > 100 µM (inactive)
- GI50 (OVCAR-4): > 100 µM (inactive)
- GI50 (OVCAR-5): > 100 µM (inactive)
- GI50 (OVCAR-8): > 100 µM (inactive)
- GI50 (PC-3): > 100 µM (inactive)
- GI50 (RPMI-8226): > 100 µM (inactive)
- GI50 (SF-268): > 100 µM (inactive)
- GI50 (SF-295): > 100 µM (inactive)
- GI50 (SF-539): > 100 µM (inactive)
- GI50 (SK-MEL-28): > 100 µM (inactive)
- GI50 (SK-MEL-2): > 100 µM (inactive)
- GI50 (SK-MEL-5): > 100 µM (inactive)
- GI50 (SK-OV-3): > 100 µM (inactive)
- GI50 (SN12C): > 100 µM (inactive)
- GI50 (SNB-19): > 100 µM (inactive)
- GI50 (SR): > 100 µM (inactive)
- GI50 (SW-620): > 100 µM (inactive)
- GI50 (T47D): > 100 µM (inactive)
- GI50 (TK-10): > 100 µM (inactive)
- GI50 (U-251): > 100 µM (inactive)
- GI50 (UACC-257): > 100 µM (inactive)
- GI50 (UACC-62): > 100 µM (inactive)
- GI50 (UO-31): > 100 µM (inactive)

Structure (SMILES): O=C(NCCCCCCCCNC(=O)Nc1cccc2ccccc12)Nc1cccc2ccccc12
- GI50 (786-0): 10.1 µM (inactive)
- GI50 (A498): 11 µM (inactive)
- GI50 (A549): 35.1 µM (inactive)
- GI50 (ACHN): 85.9 µM (inactive)
- GI50 (BT-549): 31.6 µM (inactive)
- GI50 (CAKI-1): 40.9 µM (inactive)
- GI50 (CCRF-CEM): 12.9 µM (inactive)
- GI50 (COLO 205): 35.6 µM (inactive)
- GI50 (DU-145): > 100 µM (inactive)
- GI50 (EKVX): 62.1 µM (inactive)
- GI50 (HCC 2998): 30.1 µM (inactive)
- GI50 (HCT-116): 9.55 µM (inactive)
- GI50 (HCT-15): > 100 µM
- GI50 (HL-60): 33.4 µM (inactive)
- GI50 (HOP-62): 12.8 µM (inactive)
- GI50 (HOP-92): 6.92 µM (inactive)
- GI50 (HT-29): > 100 µM (inactive)
- GI50 (Hs-578T): 14.2 µM (inactive)
- GI50 (IGROV-1): 50.6 µM (inactive)
- GI50 (K562): 14.5 µM (inactive)
- GI50 (KM12): > 100 µM (inactive)
- GI50 (LOX IMVI): 8.34 µM (inactive)
- GI50 (M14): > 100 µM (inactive)
- GI50 (MCF7): 13.8 µM (inactive)
- GI50 (MDA-MB-231): 7.69 µM (inactive)
- GI50 (MDA-MB-435): 17.3 µM (inactive)
- GI50 (MDA-N): 20.3 µM (inactive)
- GI50 (MOLT-4): 41.6 µM (inactive)
- GI50 (Malme-3M): > 100 µM (inactive)
- GI50 (NCI-H23): 30.4 µM (inactive)
- GI50 (NCI-H460): 3.5 µM (inactive)
- GI50 (NCI-H522): 16.1 µM (inactive)
- GI50 (NCI/ADR-RES): 46.7 µM (inactive)
- GI50 (OVCAR-3): 36.5 µM (inactive)
- GI50 (OVCAR-4): 1.45 µM (inactive)
- GI50 (OVCAR-5): 41.7 µM (inactive)
- GI50 (OVCAR-8): 18.5 µM (inactive)
- GI50 (PC-3): 72.1 µM (inactive)
- GI50 (RPMI-8226): > 100 µM (inactive)
- GI50 (RXF 393): 22.6 µM (inactive)
- GI50 (SF-268): 14.1 µM (inactive)
- GI50 (SF-295): 28.5 µM (inactive)
- GI50 (SF-539): 10.8 µM (inactive)
- GI50 (SK-MEL-28): 57.7 µM (inactive)
- GI50 (SK-MEL-2): 83.9 µM (inactive)
- GI50 (SK-MEL-5): 42.3 µM (inactive)
- GI50 (SN12C): 18.4 µM (inactive)
- GI50 (SNB-19): 32.2 µM (inactive)
- GI50 (SNB-75): 35.5 µM (inactive)
- GI50 (SR): > 10 µM (inactive)
- GI50 (SW-620): 9.66 µM (inactive)
- GI50 (T47D): 24 µM (inactive)
- GI50 (TK-10): 43.7 µM (inactive)
- GI50 (U-251): 2.76 µM (inactive)
- GI50 (UACC-257): > 100 µM (inactive)
- GI50 (UACC-62): 32.9 µM (inactive)
- GI50 (UO-31): 21.4 µM (inactive)
